One test relates to HEK293. In words: Cellular IC50 HEK293. It is filed as cell-based. The following applies: Homo sapiens. The source says: (§1) XLfit (idbs) was used to determine the IC50-values in inhibition experiments. The following formula was chosen to fit the data points (Langmuir Binding Isotherm): fit=((A+(B*x))+4(C−B)*(1−exp((−1*D)*x)))/D)), res=(y−fit)
A further test deals with TNKS2 (Homo sapiens (Human), UniProt Q9H2K2). The test is described as follows: Biochemical IC50 TNKS2.
Excerpt: as §1

Where [1] appears, read: HEK293, read-out: Cellular IC50 HEK293.
The mark [2] stands for this setting: read-out: Biochemical IC50 TNKS2.
The mark [3] stands for this setting: HEK293, HEK293, read-out: Cellular IC50 HEK293.

Read-outs that look alike come from different tables or passages of the source.

TNKS2, sequence (Q9H2K2 whole entry): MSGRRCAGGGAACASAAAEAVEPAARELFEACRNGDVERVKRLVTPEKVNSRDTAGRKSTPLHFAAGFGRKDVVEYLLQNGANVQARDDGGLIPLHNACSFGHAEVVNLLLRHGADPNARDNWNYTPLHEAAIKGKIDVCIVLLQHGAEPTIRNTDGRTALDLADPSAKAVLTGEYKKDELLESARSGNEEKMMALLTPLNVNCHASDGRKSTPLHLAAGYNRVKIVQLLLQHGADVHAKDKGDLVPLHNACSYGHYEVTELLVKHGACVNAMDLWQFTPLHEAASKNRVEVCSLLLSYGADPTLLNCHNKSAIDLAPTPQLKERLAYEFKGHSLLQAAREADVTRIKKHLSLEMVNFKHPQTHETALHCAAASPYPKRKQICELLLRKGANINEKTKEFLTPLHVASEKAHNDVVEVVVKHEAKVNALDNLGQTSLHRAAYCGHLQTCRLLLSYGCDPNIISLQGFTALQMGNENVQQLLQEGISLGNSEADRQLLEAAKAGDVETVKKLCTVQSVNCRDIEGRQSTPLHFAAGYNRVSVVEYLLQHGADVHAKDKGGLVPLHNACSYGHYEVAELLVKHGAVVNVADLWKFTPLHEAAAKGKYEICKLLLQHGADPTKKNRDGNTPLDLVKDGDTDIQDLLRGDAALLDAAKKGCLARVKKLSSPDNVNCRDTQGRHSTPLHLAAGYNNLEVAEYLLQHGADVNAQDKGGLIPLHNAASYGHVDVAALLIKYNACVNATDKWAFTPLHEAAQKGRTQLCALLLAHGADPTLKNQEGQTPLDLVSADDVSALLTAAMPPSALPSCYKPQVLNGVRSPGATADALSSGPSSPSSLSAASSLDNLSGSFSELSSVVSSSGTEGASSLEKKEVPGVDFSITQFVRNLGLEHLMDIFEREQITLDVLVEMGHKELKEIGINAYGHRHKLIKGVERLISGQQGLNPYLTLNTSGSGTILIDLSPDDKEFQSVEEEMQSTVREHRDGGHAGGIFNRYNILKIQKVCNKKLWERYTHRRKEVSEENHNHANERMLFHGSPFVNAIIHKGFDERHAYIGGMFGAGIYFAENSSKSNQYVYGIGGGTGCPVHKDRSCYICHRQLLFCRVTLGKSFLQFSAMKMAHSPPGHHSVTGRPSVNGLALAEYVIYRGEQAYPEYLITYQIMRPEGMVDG

For orientation: IC50 means the concentration needed to halve the response being measured. With `O=C(N[C@H]1C[C@H](c2nnc(-c3ccc(OC4CC4)cn3)n2-c2ccccc2F)C1)c1ccccn1` [Example 106, N-((1S,3r)-3-(5-(5-cyclopropoxypyridin-2-yl)-4-(2-fluorophenyl)-4H-1,2,4-triazol-3-yl)cyclobutyl)picolinamide], the IC50 is 49 nM in the test with HEK293 (setting [1]) and 8.6 nM at TNKS2 (setting [2]).
Regarding `CCOc1ccc(-c2nnc([C@H]3C[C@H](NC(=O)c4cc5ccccc5cn4)C3)n2-c2ccccc2F)nc1` [Example 99, N-((1S,3r)-3-(5-(5-ethoxypyridin-2-yl)-4-(2-fluorophenyl)-4H-1,2,4-triazol-3-yl)cyclobutyl)isoquinoline-3-carboxamide], the IC50 in the test on HEK293 (setting [3]) is 18 nM; on TNKS2 (setting [2]), 5.4 nM.
As for `[2H]C([2H])([2H])C([2H])([2H])Oc1ccc(-c2nnc([C@H]3C[C@H](NC(=O)c4cccc5cc(F)cnc45)C3)n2-c2ccccc2F)nc1` [Example 141, N-((1S,3r)-3-(5-(5-(ethoxy-d5)pyridin-2-yl)-4-(2-fluorophenyl)-4H-1,2,4-triazol-3-yl)cyclobutyl)-3-fluoroquinoline-8-carboxamide], the results for the IC50 with HEK293 (setting [3]) and against TNKS2 were 1.1 nM and 2.9 nM, respectively.
As to `O=C(N[C@H]1C[C@H](c2nnc(-c3nccs3)n2-c2ccccc2)C1)c1ccccn1` [Example 32, N-((1r,3r)-3-(4-phenyl-5-(thiazol-2-yl)-4H-1,2,4-triazol-3-yl)cyclobutyl)picolinamide], the IC50 with HEK293 (setting [3]) came out at 229 nM; on TNKS2 (setting [2]), 49 nM.
`CCOc1ccc(-c2nnc([C@H]3C[C@H](NC(=O)c4ccnc5cc(F)cnc45)C3)n2-c2ccncc2)nc1` [Example 170, N-((1r,3r)-3-(5-(5-ethoxypyridin-2-yl)-4-(pyridin-4-yl)-4H-1,2,4-triazol-3-yl)cyclobutyl)-7-fluoro-1,5-naphthyridine-4-carboxamide]: the IC50 was found to be 6 nM in the test with HEK293 (setting [1]) and 2.9 nM on TNKS2 (setting [2]).
For the compound `CCOc1ccc(-c2nnc([C@H]3C[C@H](NC(=O)c4ccccn4)C3)n2-c2ccccc2Cl)nc1` [Example 134, N-((1S,3r)-3-(4-(2-chlorophenyl)-5-(5-ethoxypyridin-2-yl)-4H-1,2,4-triazol-3-yl)cyclobutyl)picolinamide], the IC50 was determined as 4.5 nM in the test with HEK293 (setting [3]) and 3.7 nM on TNKS2 (setting [2]).
In the case of `CCOc1ccc(-c2nnc([C@H]3C[C@H](NC(=O)c4ccc5ccccc5n4)C3)n2-c2ccccc2F)nc1` [Example 104, N-((1S,3r)-3-(5-(5-ethoxypyridin-2-yl)-4-(2-fluorophenyl)-4H-1,2,4-triazol-3-yl)cyclobutyl)quinoline-2-carboxamide], the IC50 in the test on HEK293 (setting [3]) came out at 14 nM; at TNKS2 (setting [2]) it was 6.4 nM.
For `O=C(N[C@H]1C[C@H](c2nnc(-c3ccncn3)n2-c2ccccc2Cl)C1)c1cccc2ncccc12` [Example 7, N-((1S,3r)-3-(4-(2-chlorophenyl)-5-(pyrimidin-4-yl)-4H-1,2,4-triazol-3-yl)cyclobutyl)quinoline-5-carboxamide], the IC50 with HEK293 (setting [3]) came to 750 nM; on TNKS2 (setting [2]), 350 nM.
Consider `O=C(N[C@H]1C[C@H](c2nnc(-c3nccs3)n2-c2ccccc2F)C1)c1ccccc1` [Example 27, N-((1S,3r)-3-(4-(2-fluorophenyl)-5-(thiazol-2-yl)-4H-1,2,4-triazol-3-yl)cyclobutyl)benzamide], for which the half-inhibitory concentration (IC50) was 470 nM in the test with HEK293 (setting [3]) and 250 nM on TNKS2 (setting [2]).
Consider `CCOc1ccc(-c2nnc([C@H]3C[C@H](NC(=O)c4ccnc5cc(F)cnc45)C3)n2-c2cccnc2)nc1` [Example 164, N-((1r,3r)-3-(5-(5-ethoxypyridin-2-yl)-4-(pyridin-3-yl)-4H-1,2,4-triazol-3-yl)cyclobutyl)-7-fluoro-1,5-naphthyridine-4-carboxamide], for which the figures for the IC50 in the test on HEK293 (setting [1]) and at TNKS2 (setting [2]) were 9 nM and 5.8 nM, respectively.
With `CCOc1ccc(-c2nnc([C@H]3C[C@H](NC(=O)c4cccc5cccnc45)C3)n2-c2cccc(Cl)c2)nc1` [Example 139, N-((1r,3r)-3-(4-(3-chlorophenyl)-5-(5-ethoxypyridin-2-yl)-4H-1,2,4-triazol-3-yl)cyclobutyl)quinoline-8-carboxamide], the IC50 in the test on HEK293 (setting [3]) was found to be 4 nM; at TNKS2 (setting [2]), 8.7 nM.
`CCOc1ccc(-c2nnc([C@H]3C[C@H](NC(=O)c4ccnc5cccnc45)C3)n2-c2ccccn2)nc1` [Example 124, N-((1r,3r)-3-(5-(5-ethoxypridin-2-yl)-4-(pyridin-2-yl)-4H-1,2,4-triazol-3-yl)cyclobutyl)-1,5-naphthyridine-4-carboxamide]: the figures for the IC50 in the test on HEK293 (setting [1]) and on TNKS2 (setting [2]) were 36 nM and 5.8 nM, respectively.
Consider `CCOc1ccc(C(=O)N[C@H]2C[C@H](c3nnc(-c4ccncn4)n3-c3ccccc3Cl)C2)nc1` [Example 130, N-((1R,3r)-3-(4-(2-chlorophenyl)-5-(pyrimidin-4-yl)-4H-1,2,4-triazol-3-yl)cyclobutyl)-5-ethoxypicolinamide], for which the results for the IC50 in the test on HEK293 (setting [3]) and on TNKS2 (setting [2]) were 1.4 nM and 4.8 nM, respectively.
Take `CCOc1ccc(-c2nnc([C@H]3C[C@H](NC(=O)c4ccnc5cccnc45)C3)n2-c2ccccc2)nc1` [Example 69, N-((1r,3r)-3-(5-(5-ethoxypyridin-2-yl)-4-phenyl-4H-1,2,4-triazol-3-yl)cyclobutyl)-1,5-naphthyridine-4-carboxamide]: the IC50 in the test with HEK293 (setting [3]) was 0.712 nM; at TNKS2 (setting [2]), 2 nM.
Regarding `CCOc1ccc(-c2nnc([C@H]3C[C@H](NC(=O)c4ccn(C)n4)C3)n2-c2ccccc2F)nc1` [Example 120, N-((1S,3r)-3-(5-(5-ethoxypyridin-2-yl)-4-(2-fluorophenyl)-4H-1,2,4-triazol-3-yl)cyclobutyl)-1-methyl-1H-pyrazole-3-carboxamide], the IC50 in the test on HEK293 (setting [3]) came out at 65 nM; at TNKS2 (setting [2]), 18 nM.
`CCOc1ccc(-c2nnc([C@H]3C[C@H](NC(=O)c4ccc5ncccc5n4)C3)n2-c2ccccc2F)nc1` [Example 96, N-((1S,3r)-3-(5-(5-ethoxypyridin-2-yl)-4-(2-fluorophenyl)-4H-1,2,4-triazol-3-yl)cyclobutyl)-1,5-naphthyridine-2-carboxamide]: the results for the IC50 in the test on HEK293 (setting [1]) and at TNKS2 (setting [2]) were 5 nM and 1.5 nM, respectively.
With `CCOc1ccc(-c2nnc([C@H]3C[C@H](NC(=O)c4ccc5ncccc5n4)C3)n2-c2cccnc2)nc1` [Example 163, N-((1r,3r)-3-(5-(5-ethoxypyridin-2-yl)-4-(pyridin-3-yl)-4H-1,2,4-triazol-3-yl)cyclobutyl)-1,5-naphthyridine-2-carboxamide], the IC50 with HEK293 (setting [3]) was 71 nM; on TNKS2 (setting [2]), 14 nM.
For the compound `Cc1ccc(-n2c(-c3nccs3)nnc2[C@H]2C[C@H](NC(=O)c3ccccn3)C2)s1` [Example 88, N-((1r,3r)-3-(4-(5-methylthiophen-2-yl)-5-(thiazol-2-yl)-4H-1,2,4-triazol-3-yl)cyclobutyl)picolinamide], the IC50 with HEK293 (setting [3]) came to 93 nM; on TNKS2 (setting [2]), 47 nM.
For `CCOc1ccc(C(=O)N[C@H]2C[C@H](c3nnc(-c4ccc(OCC)cn4)n3-c3ccccc3F)C2)nc1` [Example 58, 5-ethoxy-N-((1S,3r)-3-(5-(5-ethoxypyridin-2-yl)-4-(2-fluorophenyl)-4H-1,2,4-triazol-3-yl)cyclobutyl)picolinamide] the same measures were 10 nM and 2 nM.
For `O=C(N[C@H]1C[C@H](c2nnc(-c3nccs3)n2-c2ccccn2)C1)c1ccnc2cccnc12` [Example 37, N-((1r,3r)-3-(4-(pyridin-2-yl)-5-(thiazol-2-yl)-4H-1,2,4-triazol-3-yl)cyclobutyl)-1,5-naphthyridine-4-carboxamide], the IC50 turned out to be 88 nM in the test with HEK293 (setting [3]) and 25 nM on TNKS2 (setting [2]).
Take `O=C(N[C@H]1C[C@H](c2nnc(-c3ccc(OC(F)F)cn3)n2-c2ccccc2F)C1)c1cccc2nccnc12` [Example 185, N-((1S,3r)-3-(5-(5-(difluoromethoxy)pyridin-2-yl)-4-(2-fluorophenyl)-4H-1,2,4-triazol-3-yl)cyclobutyl)quinoxaline-5-carboxamide]: the IC50 in the test on HEK293 (setting [1]) came to 1.2 nM; on TNKS2 (setting [2]), 1.9 nM.
On to `CCOc1ccc(-c2nnc([C@H]3C[C@H](NC(=O)c4nn(C)c5ccccc45)C3)n2-c2ccccc2F)nc1` [Example 153, N-((1S,3r)-3-(5-(5-ethoxypyridin-2-yl)-4-(2-fluorophenyl)-4H-1,2,4-triazol-3-yl)cyclobutyl)-1-methyl-1H-indazole-3-carboxamide], for which the half-inhibitory concentration (IC50) in the test with HEK293 (setting [3]) was 56 nM; at TNKS2 (setting [2]), 13 nM.
Turning to `CCOc1ccc(-c2nnc([C@H]3C[C@H](NC(=O)c4ncccc4C)C3)n2-c2ccccc2F)nc1` [Example 102, N-((1S,3r)-3-(5-(5-ethoxypyridin-2-yl)-4-(2-fluorophenyl)-4H-1,2,4-triazol-3-yl)cyclobutyl)-3-methylpicolinamide], the IC50 in the test with HEK293 (setting [3]) came to 919 nM; at TNKS2 (setting [2]), 190 nM.
For `CCOc1ccc(-c2nnc([C@H]3C[C@H](NC(=O)c4ccc5cc[nH]c5n4)C3)n2-c2ccccc2F)nc1` [Example 98, N-((1S,3r)-3-(5-(5-ethoxypyridin-2-yl)-4-(2-fluorophenyl)-4H-1,2,4-triazol-3-yl)cyclobutyl)-1H-pyrrolo[2,3-b]pyridine-6-carboxamide], the IC50 with HEK293 (setting [3]) was found to be 14 nM; at TNKS2 (setting [2]), 4.9 nM.
Consider `Cc1cccc(-c2nnc([C@H]3C[C@H](NC(=O)c4cc(F)cc5nccnc45)C3)n2-c2ccccc2F)n1` [Example 202, 7-fluoro-N-((1S,3r)-3-(4-(2-fluorophenyl)-5-(6-methylpyridin-2-yl)-4H-1,2,4-triazol-3-yl)cyclobutyl)quinoxaline-5-carboxamide], for which the IC50 in the test on HEK293 (setting [1]) was 0.169 nM; at TNKS2 (setting [2]) it was 1.6 nM.
`O=C(N[C@H]1C[C@H](c2nnc(-c3nccs3)n2-c2ccccc2F)C1)c1ccc(F)cc1` [Example 28, 4-fluoro-N-((1S,3r)-3-(4-(2-fluorophenyl)-5-(thiazol-2-yl)-4H-1,2,4-triazol-3-yl)cyclobutyl)benzamide]: the figures for the IC50 in the test with HEK293 (setting [3]) and on TNKS2 (setting [2]) were 240 nM and 51 nM, respectively.
